Source: patent publication US12599672B2, “KRAS proteolysis targeting chimeras” (PAQ Therapeutics Inc., priority 2023, dated 2026)

How the values were obtained:
Assay type in all cases: cell-based
KRAS = target: T1, KRAS (Homo sapiens, UniProt P01116); test: KRASamp MSD assay; settings: KE39 (KRAS amplified) cells, treated with test compounds for 24 hr, MSD readout of KRAS degradation
T1 construct: endogenous in cells; host or cells: KE39 (KRAS amplified) cells
Outline: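 Degradation DC50 derived by curve fitting, with KRAS levels quantified by MSD electrochemiluminescence (capture/detection antibodies, recombinant WT KRAS standard). Lysates prepared from KE39 cells (KRAS amplified) exposed to test compounds for 24 hr.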

KRAS G12D = target: T2, KRAS G12D (Homo sapiens, UniProt P01116, G12D); test: KRAS G12D HiBit assay; settings: AsPc-1-KRAS (G12D)-HiBit-KI cell, compound treatment for 24 hours, absolute DC50; class symbols
T2 construct: AsPc-1-KRAS (G12D)-HiBit-KI cell (Pharmaron); host or cells: AsPc-1-KRAS (G12D)-HiBit-KI cells (HiBiT knock-in at the endogenous KRAS locus)
Outline: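 HiBiT luminescence, detected by adding lytic buffer, substrate and LgBiT protein, served as the KRAS G12D read-out. Compounds, serially diluted 3-fold over 10 points from 0.3 mM DMSO stock, were on cells for 24 h; percent inhibition normalized to cells given 0.1% DMSO only.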

KRAS G12V = target: T3, KRAS G12V (Homo sapiens, UniProt P01116, G12V); test: KRAS G12V HiBit assay; settings: SW620-KRAS (G12V)-HiBit-KI cells, compound treatment for 24 hours, class symbols
T3 construct: SW620-KRAS (G12V)-HiBit-KI cell (Pharmaron); host or cells: SW620-KRAS (G12V)-HiBit-KI cells (HiBiT knock-in at the endogenous KRAS locus)
Outline: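 Luminescence from lytic Nano-Glo HiBiT detection with LgBiT read KRAS G12V levels after 24 h compound exposure. Dilutions were 10-point, 3-fold, from a 0.3 mM DMSO stock. Degradation activity was normalised to cells given 0.1% DMSO alone.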

T1 sequence (P01116 1-188 isoform P01116-2): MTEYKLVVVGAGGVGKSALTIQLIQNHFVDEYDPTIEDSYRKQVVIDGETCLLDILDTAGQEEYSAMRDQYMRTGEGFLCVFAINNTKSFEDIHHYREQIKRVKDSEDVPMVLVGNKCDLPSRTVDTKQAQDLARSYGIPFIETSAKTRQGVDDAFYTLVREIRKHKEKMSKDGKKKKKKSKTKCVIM
T3 sequence (P01116 1-188 isoform P01116-2 G12V): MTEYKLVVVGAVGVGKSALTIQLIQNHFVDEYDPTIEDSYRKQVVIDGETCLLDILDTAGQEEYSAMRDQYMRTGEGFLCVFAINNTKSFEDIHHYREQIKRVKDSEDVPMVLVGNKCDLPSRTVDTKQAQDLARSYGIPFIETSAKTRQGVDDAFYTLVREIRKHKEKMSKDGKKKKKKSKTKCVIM
T2 sequence (P01116 1-188 isoform P01116-2 G12D): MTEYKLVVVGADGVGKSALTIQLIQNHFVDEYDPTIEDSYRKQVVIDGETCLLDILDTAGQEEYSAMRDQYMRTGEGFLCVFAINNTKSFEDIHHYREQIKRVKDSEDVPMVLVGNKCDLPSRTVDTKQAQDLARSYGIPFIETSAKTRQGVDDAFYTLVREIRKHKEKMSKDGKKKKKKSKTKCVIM

DC50 (KRAS) [nM] | DC50 (KRAS G12D) [nM] | DC50 (KRAS G12V) [nM] | SMILES
1 to 10 | < 100 | < 10 | CCc1c(F)ccc2cc(O)cc(-c3ncc4c(N5CCC[C@@](C)(O)C5)nc(OC[C@@]56CCCN5[C@H](COC(=O)N5CCC7(CC5)CCN(C5CCN(c8ccc9c(c8)n(C)c(=O)n9C8CCC(=O)NC8=O)CC5)C7)CC6)nc4c3F)c12 (stereo partly drawn) [Compound 456, ((3S,7aS)-7a-(((7-(8-ethyl-7-fluoro-3-hydroxynaphthalen-1-yl)-8-fluoro-4-((R)-3-hydroxy-3-methylpiperidin-1-yl)pyrido[4,3-d]pyrimidin-2-yl)oxy)methyl)hexahydro-1H-pyrrolizin-3-yl)methyl 2-(1-(1-(2,6-dioxopiperidin-3-yl)-3-methyl-2-oxo-2,3-dihydro-1H-benzo[d]imidazol-5-yl)piperidin-4-yl)-2,8-diazaspiro[4.5]decane-8-carboxylate]
< 1 | < 100 | < 10 | CCc1c(F)ccc2cc(O)cc(-c3ncc4c(N5CCC[C@@](C)(O)C5)nc(OC[C@@]56CCCN5[C@H](COC(=O)N5CCC7(CCC(CN8CCC(c9ccc%10c(c9)n(C)c(=O)n%10C9CCC(=O)NC9=O)CC8)CC7)C5)CC6)nc4c3F)c12 (stereo partly drawn) [Compound 457, ((3S,7aS)-7a-(((7-(8-ethyl-7-fluoro-3-hydroxynaphthalen-1-yl)-8-fluoro-4-((R)-3-hydroxy-3-methylpiperidin-1-yl)pyrido[4,3-d]pyrimidin-2-yl)oxy)methyl)hexahydro-1H-pyrrolizin-3-yl)methyl 8-((4-(1-(2,6-dioxopiperidin-3-yl)-3-methyl-2-oxo-2,3-dihydro-1H-benzo[d]imidazol-5-yl)piperidin-1-yl)methyl)-2-azaspiro[4.5]decane-2-carboxylate]
< 1 | < 100 | 10 to 100 | CCc1c(F)ccc2cc(O)cc(-c3ncc4c(N5CCC[C@@](C)(O)C5)nc(OC[C@@]56CCCN5[C@H](COc5ccc(CN7CCC(c8ccc9c(c8)n(C)c(=O)n9C8CCC(=O)NC8=O)CC7)cc5)CC6)nc4c3F)c12 (stereo partly drawn) [Compound 458, 3-(5-(1-(4-(((3S,7aS)-7a-(((7-(8-ethyl-7-fluoro-3-hydroxynaphthalen-1-yl)-8-fluoro-4-((R)-3-hydroxy-3-methylpiperidin-1-yl)pyrido[4,3-d]pyrimidin-2-yl)oxy)methyl)hexahydro-1H-pyrrolizin-3-yl)methoxy)benzyl)piperidin-4-yl)-3-methyl-2-oxo-2,3-dihydro-1H-benzo[d]imidazol-1-yl)piperidine-2,6-dione]
< 1 | < 100 | < 10 | CCc1c(F)ccc2cc(O)cc(-c3cc4nc(OC[C@@]56CCCN5[C@H](COC(=O)N5CCC7(CC5)CC(N5CCC(c8ccc9c(c8)n(C)c(=O)n9C8CCC(=O)NC8=O)CC5)C7)CC6)nc(N5CCC[C@@](C)(O)C5)c4cn3)c12 (stereo partly drawn) [Compound 461, ((3S,7aS)-7a-(((7-(8-ethyl-7-fluoro-3-hydroxynaphthalen-1-yl)-4-((R)-3-hydroxy-3-methylpiperidin-1-yl)pyrido[4,3-d]pyrimidin-2-yl)oxy)methyl)hexahydro-1H-pyrrolizin-3-yl)methyl 2-(4-(1-(2,6-dioxopiperidin-3-yl)-3-methyl-2-oxo-2,3-dihydro-1H-benzo[d]imidazol-5-yl)piperidin-1-yl)-7-azaspiro[3.5]nonane-7-carboxylate]
1 to 10 | < 100 | < 10 | CCc1c(F)ccc2cc(O)cc(-c3ncc4c(N5CCC[C@@](C)(O)C5)nc(OC[C@@]56CCCN5[C@H](COC(=O)N5CC7(CN(CC8CCN(c9ccc%10c(c9)n(C)c(=O)n%10C9CCC(=O)NC9=O)CC8)C7)C5)CC6)nc4c3F)c12 (stereo partly drawn) [Compound 462, ((3S,7aS)-7a-(((7-(8-ethyl-7-fluoro-3-hydroxynaphthalen-1-yl)-8-fluoro-4-((R)-3-hydroxy-3-methylpiperidin-1-yl)pyrido[4,3-d]pyrimidin-2-yl)oxy)methyl)hexahydro-1H-pyrrolizin-3-yl)methyl 6-((1-(1-(2,6-dioxopiperidin-3-yl)-3-methyl-2-oxo-2,3-dihydro-1H-benzo[d]imidazol-5-yl)piperidin-4-yl)methyl)-2,6-diazaspiro[3.3]heptane-2-carboxylate]
1 to 10 | < 100 | < 10 | CCc1c(F)ccc2cc(O)cc(-c3ncc4c(N5CCC[C@@](C)(O)C5)nc(OC[C@@]56CCCN5[C@H](COC(=O)N5CCC7(CC5)CC(N5CC(c8ccc9c(c8)n(C)c(=O)n9C8CCC(=O)NC8=O)C5)C7)CC6)nc4c3F)c12 (stereo partly drawn) [Compound 464, ((3S,7aS)-7a-(((7-(8-ethyl-7-fluoro-3-hydroxynaphthalen-1-yl)-8-fluoro-4-((R)-3-hydroxy-3-methylpiperidin-1-yl)pyrido[4,3-d]pyrimidin-2-yl)oxy)methyl)hexahydro-1H-pyrrolizin-3-yl)methyl 2-(3-(1-(2,6-dioxopiperidin-3-yl)-3-methyl-2-oxo-2,3-dihydro-1H-benzo[d]imidazol-5-yl)azetidin-1-yl)-7-azaspiro[3.5]nonane-7-carboxylate]
< 1 | < 100 | < 10 | CCc1c(F)ccc2cc(O)cc(-c3ncc4c(N5CCC[C@@](C)(O)C5)nc(OC[C@@]56CCCN5[C@H](COC(=O)N5CCC7(CCC(N8CCC(c9ccc%10c(c9)n(C)c(=O)n%10C9CCC(=O)NC9=O)CC8)CC7)CC5)CC6)nc4c3F)c12 (stereo partly drawn) [Compound 465, ((3S,7aS)-7a-(((7-(8-ethyl-7-fluoro-3-hydroxynaphthalen-1-yl)-8-fluoro-4-((R)-3-hydroxy-3-methylpiperidin-1-yl)pyrido[4,3-d]pyrimidin-2-yl)oxy)methyl)hexahydro-1H-pyrrolizin-3-yl)methyl 9-(4-(1-(2,6-dioxopiperidin-3-yl)-3-methyl-2-oxo-2,3-dihydro-1H-benzo[d]imidazol-5-yl)piperidin-1-yl)-3-azaspiro[5.5]undecane-3-carboxylate]
< 1 | < 100 | < 10 | CCc1c(F)ccc2cc(O)cc(-c3ncc4c(N5CCC[C@@](C)(O)C5)nc(OC[C@@]56CCCN5[C@H](COC(=O)N5CCC7(CCC(CN8CCC(c9ccc%10c(c9)n(C)c(=O)n%10C9CCC(=O)NC9=O)CC8)CC7)CC5)CC6)nc4c3F)c12 (stereo partly drawn) [Compound 466, ((3S,7aS)-7a-(((7-(8-ethyl-7-fluoro-3-hydroxynaphthalen-1-yl)-8-fluoro-4-((R)-3-hydroxy-3-methylpiperidin-1-yl)pyrido[4,3-d]pyrimidin-2-yl)oxy)methyl)hexahydro-1H-pyrrolizin-3-yl)methyl 9-((4-(1-(2,6-dioxopiperidin-3-yl)-3-methyl-2-oxo-2,3-dihydro-1H-benzo[d]imidazol-5-yl)piperidin-1-yl)methyl)-3-azaspiro[5.5]undecane-3-carboxylate]
< 1 | < 100 | < 10 | CCc1c(F)ccc2cc(O)cc(-c3ncc4c(N5CCC[C@@](C)(O)C5)nc(OC[C@@]56CCCN5[C@H](COC(=O)N5CC7(CCC(N8CCC(c9ccc%10c(c9)n(C)c(=O)n%10C9CCC(=O)NC9=O)CC8)CC7)C5)CC6)nc4c3F)c12 (stereo partly drawn) [Compound 467, ((3S,7aS)-7a-(((7-(8-ethyl-7-fluoro-3-hydroxynaphthalen-1-yl)-8-fluoro-4-((R)-3-hydroxy-3-methylpiperidin-1-yl)pyrido[4,3-d]pyrimidin-2-yl)oxy)methyl)hexahydro-1H-pyrrolizin-3-yl)methyl 7-(4-(1-(2,6-dioxopiperidin-3-yl)-3-methyl-2-oxo-2,3-dihydro-1H-benzo[d]imidazol-5-yl)piperidin-1-yl)-2-azaspiro[3.5]nonane-2-carboxylate]
< 1 | < 100 | < 10 | CCc1cccc2cc(O)cc(-c3ncc4c(N5CCC[C@@](C)(O)C5)nc(OC[C@@]56CCCN5[C@H](COC(=O)N5CCC7(CC5)CC(N5CCC(c8ccc9c(c8)n(C)c(=O)n9C8CCC(=O)NC8=O)CC5)C7)CC6)nc4c3F)c12 (stereo partly drawn) [Compound 468, ((3S,7aS)-7a-(((7-(8-ethyl-3-hydroxynaphthalen-1-yl)-8-fluoro-4-((R)-3-hydroxy-3-methylpiperidin-1-yl)pyrido[4,3-d]pyrimidin-2-yl)oxy)methyl)hexahydro-1H-pyrrolizin-3-yl)methyl 2-(4-(1-(2,6-dioxopiperidin-3-yl)-3-methyl-2-oxo-2,3-dihydro-1H-benzo[d]imidazol-5-yl)piperidin-1-yl)-7-azaspiro[3.5]nonane-7-carboxylate]
